Measured values from patent US20260138969A1 (Korea Research Institute of Chemical Technology, priority 2023, published 2026).
One block for each molecule: values may come before it.

How the values were obtained:
[1] = molecular target: T1, recombinant human ASK1 protein (Homo sapiens, UniProt Q99683); assay: Evaluation of ASK1 inhibition activity ([gamma-33P]-ATP, scintillation counting); assay type: biochemical; conditions: for remaining activity at 0.5 µM: activity of group without compound set at 100%, read-out: Remaining kinase activity (%) at 0.5 uM
T1 sequence (Q99683 1-1374): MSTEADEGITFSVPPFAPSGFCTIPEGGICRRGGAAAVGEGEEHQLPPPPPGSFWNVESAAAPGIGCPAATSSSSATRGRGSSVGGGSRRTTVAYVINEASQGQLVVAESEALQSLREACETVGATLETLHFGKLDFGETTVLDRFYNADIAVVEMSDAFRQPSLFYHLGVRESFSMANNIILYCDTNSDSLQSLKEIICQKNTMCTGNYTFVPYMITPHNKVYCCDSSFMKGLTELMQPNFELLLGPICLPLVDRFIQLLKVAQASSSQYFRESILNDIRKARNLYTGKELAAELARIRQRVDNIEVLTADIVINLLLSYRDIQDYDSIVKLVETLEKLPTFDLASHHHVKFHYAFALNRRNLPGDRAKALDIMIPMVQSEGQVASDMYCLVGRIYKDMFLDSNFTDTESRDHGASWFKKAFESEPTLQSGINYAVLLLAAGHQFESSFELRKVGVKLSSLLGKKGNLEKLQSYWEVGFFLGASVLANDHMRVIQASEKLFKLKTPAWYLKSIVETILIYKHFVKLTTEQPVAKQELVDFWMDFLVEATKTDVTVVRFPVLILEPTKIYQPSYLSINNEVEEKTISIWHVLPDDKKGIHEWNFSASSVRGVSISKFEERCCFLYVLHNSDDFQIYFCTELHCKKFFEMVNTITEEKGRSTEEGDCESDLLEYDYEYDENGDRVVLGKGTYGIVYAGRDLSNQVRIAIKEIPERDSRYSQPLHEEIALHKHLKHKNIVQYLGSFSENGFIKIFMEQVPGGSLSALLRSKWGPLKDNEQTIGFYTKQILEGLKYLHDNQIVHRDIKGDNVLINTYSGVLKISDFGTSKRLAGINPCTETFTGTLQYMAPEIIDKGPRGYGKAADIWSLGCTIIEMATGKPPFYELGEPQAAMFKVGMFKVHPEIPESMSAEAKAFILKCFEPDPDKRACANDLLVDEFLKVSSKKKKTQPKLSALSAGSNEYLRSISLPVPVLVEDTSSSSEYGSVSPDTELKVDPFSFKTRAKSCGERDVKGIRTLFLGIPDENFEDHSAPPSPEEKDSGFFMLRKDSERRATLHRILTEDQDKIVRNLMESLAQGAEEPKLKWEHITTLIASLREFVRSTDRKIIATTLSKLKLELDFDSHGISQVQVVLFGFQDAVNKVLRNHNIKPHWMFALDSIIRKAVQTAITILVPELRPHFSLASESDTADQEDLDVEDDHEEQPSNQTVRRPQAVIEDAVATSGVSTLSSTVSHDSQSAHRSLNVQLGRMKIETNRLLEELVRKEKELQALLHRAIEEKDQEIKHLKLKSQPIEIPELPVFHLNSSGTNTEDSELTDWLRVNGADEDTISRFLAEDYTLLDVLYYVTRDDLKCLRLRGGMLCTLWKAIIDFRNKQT
Experimental: The recombinant human ASK1 protein was initiated by adding a mixture of Mg/ATP to the reaction solution (8 mM MOPS PH 7.0, 0.2 mM EDTA, 0.33 mg/mL myelin basic protein, 10 mM Mg Acetate and [gamma-33P]-ATP), and the reaction was terminated by adding 0.5% phosphoric acid after 40 min at room temperature.

SH-SY5Y cells = assay: Cytoprotective effects in MPP+-induced human neurons (CCK-8); assay type: cell-based; conditions: MPP+ 5 mM induced cytotoxicity, cell viability by CCK-8
Experimental: SH-SY5Y cells were purchased from ATCC and cultured at 37° C. and 5% CO2 in RPMI medium containing 10% FBS and 1% penicillin and streptomycin. MPP+ was purchased from Sigma Aldrich and treated with 5 mM to induce cytotoxicity.

PC12 cells = assay: Neuronal protective efficacy against 6-OHDA (MTT); assay type: cell-based; conditions: Rattus norvegicus, PC-12, 6-OHDA 40 μM, Control = 100, read-out: cell viability (AVE); for viability at 0.1 µM: compound 0.1 μM; for viability at 0.3 µM: compound 0.3 μM; for viability at 1 µM: compound 1 μM
Experimental: The neuronal toxicity substances 6-OHDA (6-hydroxydopamine hydrobromide) and MPP+ (1-methyl-4-phenylpyridinium) were purchased from Sigma-Aldrich (Saint Louis, MO, USA) and made into 100 mM DMSO stock. PC12 cells were seeded on 96-well plates with 4 pieces of 1×10 per well and incubated for one day. The cells were pretreated with each concentration of embodied compound for 1 h. Subsequently, 40 μM 6-OHDA and 2 mM MPP^+ were added and incubated for 24 hours, respectively. Subsequently, cell viability was measured using MTT (Invitrogen, MA, USA).

[2] = tested on: MPTP-induced PD mouse model; assay: MPTP-induced PD mouse model: dopamine by LC-MS/MS; assay type: in vivo; conditions: vs MPTP alone group
Experimental: Mice at 7 weeks of age were divided into 7 groups as shown in Table 9 below to generate an acute MPTP model and proceed with drug administration: control group+vehicle (G1), MPTP+vehicle (G2), MPTP+Nilotinib 40 mg/kg (G3), MPTP+Example 3 2 mg/kg (G4), MPTP+Example 3 10 mg/kg (G5), MPTP+Example 3 50 mg/kg (G6), and MPTP+Example 2 50 mg/kg (G7). The test drug was administered orally (PO) at 10 ml/kg once daily (QD) from Day 1 to Day 7. The acute MPTP model will be performed at 2-hour intervals in all groups except the control group. […] was administered as intraperitoneal (IP) injection for 4 doses. The control group was given the same amount of 0.9% saline. The Pole test was performed on day 4 (after training on day 2 and day 3). On day 7, all mice were euthanized, and their brains were harvested.
The amount of dopamine was measured by LC-MS/MS analysis using Agilent 1290 (LC) and SCIEX QTARP 6500+ (QQQ) for the striatum and substantia nigra of the extracted brain tissue.

IC50 [1]: 0.037 µM | remaining activity at 0.5 µM [1]: 2%
Compound: Cc1cc(F)c(C(=O)Nc2cccc(-n3nnc4c3CCC4)n2)cc1-n1cnc(C2CC2)c1 [Example 2, 5-(4-cyclopropyl-1H-imidazole-1-yl)-N-(6-(5,6-dihydrocyclopenta[d][1,2,3]triazole-1 (4H)-yl)pyridine-2-yl)-2-fluoro-4-methylbenzamide]
EC50 (SH-SY5Y cells): 64 nM | viability at 0.1 µM (PC12 cells): 88.8% | viability at 0.3 µM (PC12 cells): 91.5% | viability at 1 µM (PC12 cells): 96.8% | dopamine concentration in the striatum ([2]; 50 mg/kg PO QD): significantly increased | dopamine concentration in the substantia nigra ([2]; 50 mg/kg PO QD): significantly increased

Compound: Cc1cc(F)c(C(=O)Nc2cccc(-n3nnc4c3CCCC4)n2)cc1-n1cnc(C2CC2)c1 [Example 3, 5-(4-cyclopropyl-1H-imidazole-1-yl)-2-fluoro-4-methyl-N-(6-(4,5,6,7-tetrahydro-1H-benzo[d][1,2,3]triazole-1-yl)pyridine-2-yl)benzamide]
IC50 [1]: 0.073 µM | remaining activity at 0.5 µM [1]: 7% | EC50 (SH-SY5Y cells): 23 nM | viability at 0.1 µM (PC12 cells): 90% | viability at 0.3 µM (PC12 cells): 92% | viability at 1 µM (PC12 cells): 92.8% | dopamine concentration in the substantia nigra ([2]; 2 mg/kg PO QD): significantly increased | dopamine concentration in the substantia nigra ([2]; 10 mg/kg PO QD): significantly increased
